The subject of assay [1] is Clostridium pasteurianum (DSM 525). In words: Effect of lactic acid, acetic acid and ethanol on growth and butanol production of Clostridium pasteurianum in glycerol medium (Example 1). The format is cell-based. The following applies: for inhibition of the growth of Clostridium pasteurianum (OD600): added to the medium up to 10 g/L, pH 6.5, 37° C. How it is done: The butanol-producing bacterium Clostridium pasteurianum (DSM 525) was acquired from the DSMZ (Germany). The medium used for experiment was prepared with primarily distilled water (1 L) by adding the following ingredients: glycerol (30 g), K2HPO4 (0.5 g), KH2PO4 (0.5 g), MnSO4.H2O (0.01 g), MgSO4.7H2O (0.2 g), FeSO4.7H2O (0.01 g), NaCl (0.01 g), yeast extract (1 g), (NH4)2SO4 (2 g), MES (19.52 g), biotin (0.00001 g), thiamine (0.001 g) and p-aminobenzoic acid (0.001 g).
After adding lactic acid (C3H6O3, 0-14.6 g/L), acetic acid (C2H4O2, 0-10 g/L) or ethanol (C2H60, 0-20 g/L) to the medium, the pH was adjusted to 6.5 using potassium hydroxide (KOH) or sodium hydroxide (NaOH). After placing the medium (50 mL) in a 125-mL serum bottle and removing oxygen by blowing in argon gas, the bottle was sealed with a butyl rubber stopper and an aluminum cap. After sterilizing under high pressure and inoculating Clostridium pasteurianum cultured for 1-2 days at 5% (v/v), the bacterium was cultured at 37° C. while shaking at 130 rpm.
The cell growth was determined by measuring absorbance (optical density) at 600 nm (OD600).

In assay [2] the test system is Clostridium pasteurianum (C. pasteurianum DSM 525). In words: Alkaline agent for pH control of medium: growth and butanol production of Clostridium pasteurianum (Example 4). The format is cell-based. The following applies: for cell growth (order of alkaline agents): medium of Example 1 with 10 g/L lactic acid, pH adjusted to 6.5 using each alkaline agent. An excerpt:
In the experiment for evaluating the effect of lactic acid, acetic acid and ethanol on the growth of Clostridium pasteurianum (C. pasteurianum DSM 525), sodium hydroxide (NaOH) was used to adjust the pH of the medium. Since the ethanol waste fermented solution has a pH of 4-5, the pH needs to be controlled using an alkaline agent in order to produce butanol using the Clostridium pasteurianum (C. pasteurianum DSM 525). In addition to sodium hydroxide, potassium hydroxide (KOH), calcium hydroxide (Ca(OH)2), ammonia water (NH4OH), etc. are available as the alkaline agent. It was investigated whether the growth of Clostridium pasteurianum (C. pasteurianum DSM 525) is affected by the alkaline agents. For this purpose, after adding lactic acid (10 g/L) to the medium of Example 1, pH was adjusted to 6.5 using each alkaline agent.

Entries after “also recorded” stand apart in the source; their conditions may differ.

Consider `CC(O)C(=O)O` (stereo not drawn) [Lactic acid, lactic acid], for which the “inhibition of the growth of Clostridium pasteurianum (OD600)” value (from here on “inhibition”) in assay [1] is recorded as “did not result in severe inhibition”. The production of butanol entry in assay [1] (lactic acid added (10 g/L or less) compared to when not added) is listed as “improved butanol-producing effect; also recorded: improved production of butanol”.

`CC(=O)O` [acetic acid]: the “inhibition” value in assay [1] is reported as “did not result in severe inhibition”.

Take `N` [ammonia water, ammonia water (NH4OH)]: the “cell growth (order of alkaline agents)” value in assay [2] is “faster in the order of calcium hydroxide, potassium hydroxide, ammonia water and sodium hydroxide”.

`[Ca+2].[OH-].[OH-]` [calcium hydroxide, calcium hydroxide (Ca(OH)2)]: the “cell growth (order of alkaline agents)” value in assay [2] is “faster in the order of calcium hydroxide, potassium hydroxide, ammonia water and sodium hydroxide”.

`CCO` [ethanol]: the “inhibition” value in assay [1] is given as “did not result in severe inhibition”.

Turning to `[K+].[OH-]` [potassium hydroxide, potassium hydroxide (KOH)], in assay [2], the “cell growth (order of alkaline agents)” value was “faster in the order of calcium hydroxide, potassium hydroxide, ammonia water and sodium hydroxide”.

For `[Na+].[OH-]` [sodium hydroxide, sodium hydroxide (NaOH)], the “cell growth (order of alkaline agents)” value in assay [2] is “faster in the order of calcium hydroxide, potassium hydroxide, ammonia water and sodium hydroxide”.

Turning to `[Na]` [sodium], in assay [2] (as compared to potassium), the “growth of the microorganism” value is “inhibits the growth”.

Source of the values: patent publication US8753838B2, “Method for producing alcohol using bioethanol waste fermented solution” (Korea Institute of Science and Technology, priority 2010, dated 2014).
